# Experimental data published in paper PMC6886798, “Expression of myeloid Src-family kinases is associated with poor prognosis in AML and influences Flt3-ITD kinase inhibitor acquired resistance” (PLoS ONE, 2019).
# Experiments:
# Hck T338M = biological target: T1, Hck T338M (Homo sapiens, UniProt P08631, T333M); experiment: Z'-LYTE in vitro kinase assay; format: biochemical
# T1 construct: Recombinant near-full-length kinases, consisting of the SH2, SH3 and kinase domains plus the negative regulatory tail; made in house; host or cells: E. coli BL21Star (DE3), co-expressed with Csk and PTP1B
# T1 sequence (P08631 78-526 T333M limits assumed): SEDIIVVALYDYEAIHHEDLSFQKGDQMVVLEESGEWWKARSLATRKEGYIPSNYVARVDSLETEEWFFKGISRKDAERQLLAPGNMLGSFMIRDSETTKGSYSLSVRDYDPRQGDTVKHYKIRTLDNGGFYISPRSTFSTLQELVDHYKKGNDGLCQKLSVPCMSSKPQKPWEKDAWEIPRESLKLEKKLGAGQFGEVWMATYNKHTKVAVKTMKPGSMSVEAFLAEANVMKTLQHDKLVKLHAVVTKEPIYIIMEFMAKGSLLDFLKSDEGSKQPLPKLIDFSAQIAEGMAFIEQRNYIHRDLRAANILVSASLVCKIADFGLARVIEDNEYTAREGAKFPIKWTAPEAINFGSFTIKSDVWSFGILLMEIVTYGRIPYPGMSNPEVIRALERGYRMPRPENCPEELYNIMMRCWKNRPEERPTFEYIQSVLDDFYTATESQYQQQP
# Hck T338L = biological target: T2, Hck T338L (Homo sapiens, UniProt P08631, T333L); experiment: Z'-LYTE in vitro kinase assay; format: biochemical
# T2 construct: Recombinant near-full-length kinases, consisting of the SH2, SH3 and kinase domains plus the negative regulatory tail; made in house; host or cells: E. coli BL21Star (DE3), co-expressed with Csk and PTP1B
# T2 sequence (P08631 78-526 T333L limits assumed): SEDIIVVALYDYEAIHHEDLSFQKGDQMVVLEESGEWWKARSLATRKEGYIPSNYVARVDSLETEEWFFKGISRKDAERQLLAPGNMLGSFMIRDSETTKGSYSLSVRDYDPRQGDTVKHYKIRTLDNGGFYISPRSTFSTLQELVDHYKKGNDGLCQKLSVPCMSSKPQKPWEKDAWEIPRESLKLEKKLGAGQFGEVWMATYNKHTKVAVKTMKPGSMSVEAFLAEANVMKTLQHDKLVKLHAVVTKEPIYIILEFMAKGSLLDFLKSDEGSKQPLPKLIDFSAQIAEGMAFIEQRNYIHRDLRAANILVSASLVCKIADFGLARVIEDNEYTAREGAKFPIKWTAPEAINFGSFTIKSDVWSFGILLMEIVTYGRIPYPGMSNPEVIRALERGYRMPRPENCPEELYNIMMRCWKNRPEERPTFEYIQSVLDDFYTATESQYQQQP
# Hck T338F = biological target: T3, Hck T338F (Homo sapiens, UniProt P08631, T333F); experiment: Z'-LYTE in vitro kinase assay; format: biochemical
# T3 construct: Recombinant near-full-length kinases, consisting of the SH2, SH3 and kinase domains plus the negative regulatory tail; made in house; host or cells: E. coli BL21Star (DE3), co-expressed with Csk and PTP1B
# T3 sequence (P08631 78-526 T333F limits assumed): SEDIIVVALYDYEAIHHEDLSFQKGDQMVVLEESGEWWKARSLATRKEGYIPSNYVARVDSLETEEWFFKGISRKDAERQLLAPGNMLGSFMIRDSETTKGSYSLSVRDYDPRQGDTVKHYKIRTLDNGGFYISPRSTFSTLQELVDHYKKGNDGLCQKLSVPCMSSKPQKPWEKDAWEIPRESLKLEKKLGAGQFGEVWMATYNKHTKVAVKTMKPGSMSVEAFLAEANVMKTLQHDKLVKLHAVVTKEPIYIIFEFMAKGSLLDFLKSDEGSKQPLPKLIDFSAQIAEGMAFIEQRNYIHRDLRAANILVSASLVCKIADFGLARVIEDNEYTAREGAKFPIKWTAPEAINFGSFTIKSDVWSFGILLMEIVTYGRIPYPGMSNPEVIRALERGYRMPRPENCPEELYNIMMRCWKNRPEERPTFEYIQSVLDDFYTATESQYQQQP
# Fgr T338L = biological target: T4, Fgr T338L (Homo sapiens, UniProt P09769, T334L); experiment: Z'-LYTE in vitro kinase assay; format: biochemical; conditions: read-out: A-419259 IC50, Fig 5B, ATP at Km, mean ± SE, three independent determinations
# T4 construct: Recombinant near-full-length kinases, consisting of the SH2, SH3 and kinase domains plus the negative regulatory tail; made in house; host or cells: E. coli BL21Star (DE3), co-expressed with Csk and PTP1B
# Description: (§2) Assays were performed in quadruplicate in 384-well low volume, non-binding, black polystyrene microplates (Corning) according to the manufacturer’s instructions. Briefly, this assay measures phosphorylation of the Tyr2 peptide substrate which is tagged with coumarin and fluorescein on its N- and C-termini, respectively, to form a FRET pair. After the kinase reaction, a development step involves site-specific proteolytic cleavage of the unphosphorylated but not the phosphorylated peptide. […] Kinase reactions were run in 50 mM HEPES, pH 7.5, 10 mM MgCl2, 1 mM EGTA, and 0.01% BRIJ-35 (buffer supplied by the manufacturer). […] Following incubation for 1 h at ambient temperature, reactions were quenched by addition of the development protease, and coumarin and fluorescein fluorescence were measured 1 h later on a Molecular Devices SpectraMax M5 plate reader. […] For experiments with inhibitors, compounds were preincubated with kinase for 30 min prior to initiation of the reaction by the addition of ATP.
# Fgr T338F = biological target: T5, Fgr T338F (Homo sapiens, UniProt P09769, T334F); experiment: Z'-LYTE in vitro kinase assay; format: biochemical
# T5 construct: Recombinant near-full-length kinases, consisting of the SH2, SH3 and kinase domains plus the negative regulatory tail; made in house; host or cells: E. coli BL21Star (DE3), co-expressed with Csk and PTP1B
# Description: as §2
# Lyn T338M = biological target: T6, Lyn T338M (Homo sapiens, UniProt P07948, T319M); experiment: Z'-LYTE in vitro kinase assay; format: biochemical; conditions: read-out: A-419259 IC50, Fig 5B, ATP at Km, mean ± SE, three independent determinations
# T6 construct: Recombinant near-full-length kinases, consisting of the SH2, SH3 and kinase domains plus the negative regulatory tail; made in house; host or cells: E. coli BL21Star (DE3), co-expressed with Csk and PTP1B
# Lyn T338L = biological target: T7, Lyn T338L (Homo sapiens, UniProt P07948, T319L); experiment: Z'-LYTE in vitro kinase assay; format: biochemical; conditions: read-out: A-419259 IC50, Fig 5B, ATP at Km, mean ± SE, three independent determinations
# T7 construct: Recombinant near-full-length kinases, consisting of the SH2, SH3 and kinase domains plus the negative regulatory tail; made in house; host or cells: E. coli BL21Star (DE3), co-expressed with Csk and PTP1B
# [1] = test system: parental TF-1 cells (GM-CSF); experiment: CellTiter-Blue cell viability; format: cell-based, human; conditions: at 3.0 μM; 72 hours; in the presence of GM-CSF
# Description: TF-1 and MV4-11 cells were obtained from the American Type Culture Collection (ATCC) and cultured in RPMI 1640 medium supplemented with 10% fetal bovine serum (FBS), 100 units/ml of penicillin, 100 μg/ml of streptomycin sulfate, and 0.25 μg/ml of amphotericin B (Antibiotic-Antimycotic; Gibco/ThermoFisher). Parental TF-1 cells also require recombinant human GM-CSF (1 ng/mL; ThermoFisher). MOLM13 and MOLM14 cells were obtained from Leibniz Institute Deutsche Sammlung von Mikroorganismen (DSMZ) and grown in RPMI 1640 medium containing 20% FBS and Antibiotic-Antimycotic. Human 293T cells were obtained from ATCC and cultured in Dulbecco's modified Eagle's medium (DMEM) containing 10% FBS and Antibiotic-Antimycotic.
# Cells were seeded at 10^5 per mL in the presence or absence of inhibitors with DMSO as carrier solvent (0.1% final). Cell viability was assessed using the CellTiter-Blue reagent according to the manufacturer’s instructions (Promega). Fluorescence intensity, which correlates directly with viable cell number, was measured using a SpectraMax M5 microplate reader. Each experiment included three technical replicates per condition, and each experiment was repeated at least three times.
# [2] = test system: Flt3-ITD N676S in TF-1 cells; experiment: Flt3 immunoprecipitation, anti-phosphotyrosine immunoblot; format: cell-based, human; conditions: vs Flt3-ITD; overnight
# Description: Immunoprecipitation reactions were incubated overnight at 4 °C.
# 468 kinases = experiment: KINOMEscan scanMAX profile, overall selectivity; format: binding, human; conditions: 1 μM; 468 kinase targets
# ABL1-nonphosphorylated = biological target: T8, ABL1-nonphosphorylated (Homo sapiens, UniProt P00519); experiment: KINOMEscan; format: binding; conditions: 1.0 µM
# T8 construct: purchased Eurofins/DiscoverX KINOMEscan scanMAX
# Description: (§1) Kinase retention to the immobilized ligand is then measured using quantitative real-time PCR for each kinase-specific DNA barcode.
# ACVR1B = biological target: T9, ACVR1B (Homo sapiens, UniProt P36896); experiment: KINOMEscan; format: binding; conditions: 1.0 µM
# T9 construct: purchased Eurofins/DiscoverX KINOMEscan scanMAX
# Description: as §1
# ERBB4 = biological target: T10, ERBB4 (Homo sapiens, UniProt Q15303); experiment: KINOMEscan; format: binding; conditions: 1.0 µM
# T10 construct: purchased Eurofins/DiscoverX KINOMEscan scanMAX
# T10 sequence (Q15303 26-1308): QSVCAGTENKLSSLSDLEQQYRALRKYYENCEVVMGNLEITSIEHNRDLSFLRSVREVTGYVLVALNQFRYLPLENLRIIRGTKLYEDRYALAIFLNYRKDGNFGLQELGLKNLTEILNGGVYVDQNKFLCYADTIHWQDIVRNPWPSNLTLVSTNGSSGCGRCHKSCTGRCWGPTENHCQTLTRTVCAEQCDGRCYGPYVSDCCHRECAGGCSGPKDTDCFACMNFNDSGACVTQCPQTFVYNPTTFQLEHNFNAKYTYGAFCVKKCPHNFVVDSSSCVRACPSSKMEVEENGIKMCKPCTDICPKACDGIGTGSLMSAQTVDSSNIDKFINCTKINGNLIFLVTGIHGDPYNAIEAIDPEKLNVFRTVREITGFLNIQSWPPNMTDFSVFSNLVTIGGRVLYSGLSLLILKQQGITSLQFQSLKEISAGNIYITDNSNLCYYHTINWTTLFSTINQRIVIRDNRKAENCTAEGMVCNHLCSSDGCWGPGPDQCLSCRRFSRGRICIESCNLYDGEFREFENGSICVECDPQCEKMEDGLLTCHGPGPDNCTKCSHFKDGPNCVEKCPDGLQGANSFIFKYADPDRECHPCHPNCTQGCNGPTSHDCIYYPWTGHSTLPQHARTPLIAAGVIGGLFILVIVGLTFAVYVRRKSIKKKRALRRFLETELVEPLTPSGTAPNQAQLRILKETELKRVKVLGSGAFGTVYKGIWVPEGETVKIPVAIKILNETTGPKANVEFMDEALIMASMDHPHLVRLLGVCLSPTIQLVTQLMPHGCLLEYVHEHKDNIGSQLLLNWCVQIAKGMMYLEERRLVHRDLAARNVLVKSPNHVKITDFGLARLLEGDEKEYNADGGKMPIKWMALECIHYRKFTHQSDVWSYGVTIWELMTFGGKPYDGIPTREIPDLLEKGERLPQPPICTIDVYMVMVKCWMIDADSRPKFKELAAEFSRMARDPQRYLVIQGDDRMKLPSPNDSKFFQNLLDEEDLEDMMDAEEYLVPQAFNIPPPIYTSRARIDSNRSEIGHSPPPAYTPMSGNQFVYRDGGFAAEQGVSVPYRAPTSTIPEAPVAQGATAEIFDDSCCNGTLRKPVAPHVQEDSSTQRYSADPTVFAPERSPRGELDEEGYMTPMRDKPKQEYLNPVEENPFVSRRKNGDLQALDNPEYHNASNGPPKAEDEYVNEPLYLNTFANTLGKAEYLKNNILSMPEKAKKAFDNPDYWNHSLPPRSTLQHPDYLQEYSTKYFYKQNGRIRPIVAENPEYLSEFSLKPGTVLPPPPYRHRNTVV
# Description: as §1
# ERK2 = biological target: T11, ERK2 (Homo sapiens, UniProt P28482); experiment: KINOMEscan; format: binding; conditions: 1.0 µM
# T11 construct: purchased Eurofins/DiscoverX KINOMEscan scanMAX
# Description: as §1
# FGFR4 = biological target: T12, FGFR4 (Homo sapiens, UniProt P22455); experiment: KINOMEscan; format: binding; conditions: 1.0 µM
# T12 construct: purchased Eurofins/DiscoverX KINOMEscan scanMAX
# Description: as §1
# MARK1 = biological target: T13, MARK1 (Homo sapiens, UniProt Q9P0L2); experiment: KINOMEscan; format: binding; conditions: 1.0 µM
# T13 construct: purchased Eurofins/DiscoverX KINOMEscan scanMAX
# T13 sequence (Q9P0L2 whole entry): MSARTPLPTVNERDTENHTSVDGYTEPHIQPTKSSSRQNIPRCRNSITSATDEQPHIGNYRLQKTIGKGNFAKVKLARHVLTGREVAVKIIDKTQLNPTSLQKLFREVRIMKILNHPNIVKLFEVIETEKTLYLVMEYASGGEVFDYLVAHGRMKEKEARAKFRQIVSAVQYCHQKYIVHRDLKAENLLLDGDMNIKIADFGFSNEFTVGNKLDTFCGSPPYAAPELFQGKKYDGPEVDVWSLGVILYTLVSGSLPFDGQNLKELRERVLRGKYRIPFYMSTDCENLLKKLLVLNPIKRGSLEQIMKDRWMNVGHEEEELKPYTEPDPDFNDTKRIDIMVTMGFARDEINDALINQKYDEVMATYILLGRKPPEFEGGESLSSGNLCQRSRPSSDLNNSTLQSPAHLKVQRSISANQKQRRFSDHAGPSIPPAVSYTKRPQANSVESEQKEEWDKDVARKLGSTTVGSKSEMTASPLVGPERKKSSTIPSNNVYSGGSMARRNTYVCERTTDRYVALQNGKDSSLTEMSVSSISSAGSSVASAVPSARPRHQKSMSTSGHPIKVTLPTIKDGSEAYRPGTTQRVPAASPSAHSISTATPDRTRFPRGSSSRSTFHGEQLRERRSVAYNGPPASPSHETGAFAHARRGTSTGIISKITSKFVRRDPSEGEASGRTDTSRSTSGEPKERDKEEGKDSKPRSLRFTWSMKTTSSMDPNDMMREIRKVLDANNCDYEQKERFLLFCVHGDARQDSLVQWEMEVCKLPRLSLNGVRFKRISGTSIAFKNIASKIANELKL
# Description: as §1
# PFTAIRE2 = biological target: T14, PFTAIRE2 (Homo sapiens, UniProt Q96Q40); experiment: KINOMEscan; format: binding; conditions: 1.0 µM
# T14 construct: purchased Eurofins/DiscoverX KINOMEscan scanMAX
# T14 sequence (Q96Q40 whole entry): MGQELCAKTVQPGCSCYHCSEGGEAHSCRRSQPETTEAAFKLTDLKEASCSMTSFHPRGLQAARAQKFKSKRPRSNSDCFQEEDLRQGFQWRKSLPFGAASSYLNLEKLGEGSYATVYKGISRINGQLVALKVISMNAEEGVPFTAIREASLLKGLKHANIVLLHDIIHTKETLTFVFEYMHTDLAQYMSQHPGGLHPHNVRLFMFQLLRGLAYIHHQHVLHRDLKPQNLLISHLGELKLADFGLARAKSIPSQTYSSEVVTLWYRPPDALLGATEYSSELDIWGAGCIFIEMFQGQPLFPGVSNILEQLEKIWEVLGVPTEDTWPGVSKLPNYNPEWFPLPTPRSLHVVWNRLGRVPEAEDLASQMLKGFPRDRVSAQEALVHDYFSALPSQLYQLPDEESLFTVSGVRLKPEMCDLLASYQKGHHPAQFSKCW
# Description: as §1
# PRKG1 = biological target: T15, PRKG1 (Homo sapiens, UniProt Q13976); experiment: KINOMEscan; format: binding; conditions: 1.0 µM
# T15 construct: purchased Eurofins/DiscoverX KINOMEscan scanMAX
# Description: as §1
# RET(V804L) = biological target: T16, RET(V804L) (Homo sapiens, UniProt P07949, V804L); experiment: KINOMEscan; format: binding; conditions: 1.0 µM
# T16 construct: purchased Eurofins/DiscoverX KINOMEscan scanMAX
# T16 sequence (P07949 29-1114 V804L): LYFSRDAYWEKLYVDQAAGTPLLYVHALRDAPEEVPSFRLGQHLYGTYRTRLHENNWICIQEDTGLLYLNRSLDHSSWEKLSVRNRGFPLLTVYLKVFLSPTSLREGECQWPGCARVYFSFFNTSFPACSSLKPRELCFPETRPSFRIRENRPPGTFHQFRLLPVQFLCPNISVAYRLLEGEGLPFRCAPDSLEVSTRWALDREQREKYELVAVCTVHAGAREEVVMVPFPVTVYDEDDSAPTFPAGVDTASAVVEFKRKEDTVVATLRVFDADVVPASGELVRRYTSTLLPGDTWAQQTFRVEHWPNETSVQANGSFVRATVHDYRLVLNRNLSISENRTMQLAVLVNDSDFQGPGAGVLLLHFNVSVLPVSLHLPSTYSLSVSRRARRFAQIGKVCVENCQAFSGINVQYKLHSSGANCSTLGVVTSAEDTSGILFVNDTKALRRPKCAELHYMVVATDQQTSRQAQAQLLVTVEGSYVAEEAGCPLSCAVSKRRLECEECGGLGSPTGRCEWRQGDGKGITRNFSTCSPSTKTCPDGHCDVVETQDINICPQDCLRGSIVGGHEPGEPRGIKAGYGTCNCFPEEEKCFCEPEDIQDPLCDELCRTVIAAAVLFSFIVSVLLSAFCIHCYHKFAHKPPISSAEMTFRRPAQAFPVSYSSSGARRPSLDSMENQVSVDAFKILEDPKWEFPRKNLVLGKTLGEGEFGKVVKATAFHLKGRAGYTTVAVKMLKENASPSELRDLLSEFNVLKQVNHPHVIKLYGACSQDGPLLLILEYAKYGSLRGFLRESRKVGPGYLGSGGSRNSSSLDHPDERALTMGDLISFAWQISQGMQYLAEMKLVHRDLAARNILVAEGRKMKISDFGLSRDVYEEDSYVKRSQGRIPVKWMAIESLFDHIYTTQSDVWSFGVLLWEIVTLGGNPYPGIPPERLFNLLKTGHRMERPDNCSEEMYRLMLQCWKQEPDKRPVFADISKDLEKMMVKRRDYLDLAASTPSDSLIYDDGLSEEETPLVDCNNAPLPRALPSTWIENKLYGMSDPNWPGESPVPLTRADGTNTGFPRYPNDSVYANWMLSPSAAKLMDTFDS
# Description: as §1
# SLK = biological target: T17, SLK (Homo sapiens, UniProt Q9H2G2); experiment: KINOMEscan; format: binding; conditions: 1.0 µM
# T17 construct: purchased Eurofins/DiscoverX KINOMEscan scanMAX
# Description: as §1
# SNARK = biological target: T18, SNARK (Homo sapiens, UniProt Q9H093); experiment: KINOMEscan; format: binding; conditions: 1.0 µM
# T18 construct: purchased Eurofins/DiscoverX KINOMEscan scanMAX
# Description: as §1
# TIE1 = biological target: T19, TIE1 (Homo sapiens, UniProt P35590); experiment: KINOMEscan; format: binding; conditions: 1.0 µM
# T19 construct: purchased Eurofins/DiscoverX KINOMEscan scanMAX
# Description: as §1
# TLK2 = biological target: T20, TLK2 (Homo sapiens, UniProt Q86UE8); experiment: KINOMEscan; format: binding; conditions: 1.0 µM
# T20 construct: purchased Eurofins/DiscoverX KINOMEscan scanMAX
# Description: as §1
# TRKA = biological target: T21, TRKA (Homo sapiens, UniProt P04629); experiment: KINOMEscan; format: binding; conditions: 1.0 µM
# T21 construct: purchased Eurofins/DiscoverX KINOMEscan scanMAX
# Description: as §1
# TRKC = biological target: T22, TRKC (Homo sapiens, UniProt Q16288); experiment: KINOMEscan; format: binding; conditions: 1.0 µM
# T22 construct: DNA tag (qPCR barcode); purchased Eurofins/DiscoverX KINOMEscan scanMAX
# Description: as §1
# CDC2L5 = CDC2L5 (Homo sapiens, UniProt Q14004); conditions: 1.0 µM
# Description: as §1
# PKNB(M.tuberculosis) = PKNB(M.tuberculosis) (Mycobacterium tuberculosis, UniProt P9WI81); conditions: 1.0 µM
# Description: as §1
# PRP4 = biological target: T23, PRP4 (Homo sapiens, UniProt Q13523); experiment: KINOMEscan; format: binding; conditions: 1.0 µM
# T23 construct: purchased Eurofins/DiscoverX KINOMEscan scanMAX
# VEGFR2 = biological target: T24, VEGFR2 (Homo sapiens, UniProt P35968); experiment: KINOMEscan; format: binding; conditions: 1.0 µM
# T24 construct: DNA tag (qPCR barcode); purchased Eurofins/DiscoverX KINOMEscan scanMAX
# [3] = test system: chemotherapy-resistant AML patient xenografts; design: method as in PMID 23596204; conditions: mice; cited from earlier work
compound,measurement,setting,value
CN1CCN(C2CCC(n3cc(-c4ccc(Oc5ccccc5)cc4)c4c(N)ncnc43)CC2)CC1 (stereo not shown) [A-419259],reduction of kinase sensitivity to A-419259,"Hck T338M; Hck gatekeeper threonine to methionine, vs wild-type",2 fold
same,IC50,"Hck T338M; read-out: A-419259 IC50, Fig 5B, Hck T338M, ATP at Km, mean ± SE, three independent determinations",94.9 ± 1.1 nM
same,effect of substitution on kinase sensitivity to A-419259,"Hck T338L; Hck gatekeeper threonine to leucine, vs wild-type",without an effect
same,IC50,"Hck T338L; read-out: A-419259 IC50, Fig 5B, Hck T338L, ATP at Km, mean ± SE, three independent determinations",41 ± 1 nM
same,reduction of kinase sensitivity to A-419259,"Hck T338F; Hck gatekeeper threonine to phenylalanine, vs wild-type",~5 fold
same,IC50,"Hck T338F; read-out: A-419259 IC50, Fig 5B, Hck T338F, ATP at Km, mean ± SE, three independent determinations",201 ± 1 nM
same,IC50,Fgr T338L,218.4 ± 1.1 nM
same,resistance to A-419259,"Fgr T338F; Fgr gatekeeper phenylalanine substitution, vs wild-type",~5 fold
same,IC50,"Fgr T338F; read-out: A-419259 IC50, Fig 5B, Fgr T338F, ATP at Km, mean ± SE, three independent determinations",282.9 ± 1.1 nM
same,IC50,Lyn T338M,127.8 ± 1 nM
same,IC50,Lyn T338L,129.7 ± 1.1 nM
same,growth inhibition,[1],less than 20%
same,sensitivity of phosphotyrosine content to A-419259,[2],significantly reduced sensitivity
same,kinase interactions,468 kinases,19
same,% Control,ABL1-nonphosphorylated,0.1%
same,% Control,ACVR1B,100%
same,% Control,ERBB4,0%
same,% Control,ERK2,77%
same,% Control,FGFR4,62%
same,% Control,MARK1,82%
same,% Control,PFTAIRE2,89%
same,% Control,PRKG1,100%
same,% Control,RET(V804L),24%
same,% Control,SLK,100%
same,% Control,SNARK,26%
same,% Control,TIE1,25%
same,% Control,TLK2,100%
same,% Control,TRKA,16%
same,% Control,TRKC,45%
same,% Control,CDC2L5,77%
same,% Control,PKNB(M.tuberculosis),82%
same,% Control,PRP4,98%
same,% Control,VEGFR2,24%
same,effect on chemotherapy-resistant AML patient xenografts,[3],completely eliminates
